Laboratory results taken from the NIST ThermoML archive (doi:10.1016/j.fluid.2017.04.001).
Numbers after ± are expanded uncertainties.

Test: wn = mass fraction of the nth substance listed
Conditions: 308.2 K, 101 kPa, Liquid, Cone and plate viscometry

Compound	viscosity (w1 = 0.05) [mPa·s]	viscosity (w1 = 0.1) [mPa·s]	viscosity (w1 = 0.2) [mPa·s]	viscosity (w1 = 0.3) [mPa·s]
C[C@H](N)C(=O)[O-].C[N+](C)(C)CCO [2-hydroxy-N,N,N-trimethylethanaminium L-alaninate] + O	0.87 ± 0.02	0.98 ± 0.03	1.32 ± 0.05	1.92 ± 0.09
C[N+](C)(C)CCO.O=C([O-])[C@@H]1CCCN1 [2-hydroxy-N,N,N-trimethylethanaminium L-prolinate] + O	0.89 ± 0.02	1.06 ± 0.03	1.49 ± 0.06	2.2 ± 0.11
C[N+](C)(C)CCO.NCC(=O)[O-] [2-hydroxy-N,N,N-trimethylethanaminium glycinate] + O	0.85 ± 0.02	0.96 ± 0.03	1.24 ± 0.04	1.7 ± 0.07
